According to ChEMBL document CHEMBL1921749, “5-Lipoxygenase-activating protein (FLAP) inhibitors. Part 4: development of 3-[3-tert-butylsulfanyl-1-[4-(6-ethoxypyridin-3-yl)benzyl]-5-(5-methylpyridin-2-ylmethoxy)-1H-indol-2-yl]-2,2-dimethylpropionic acid (AM803), a potent, oral, once daily FLAP inhibitor” (J Med Chem, 2011):

Target: T1, Arachidonate 5-lipoxygenase-activating protein (Homo sapiens, UniProt P20292)
T1 sequence (P20292 whole entry): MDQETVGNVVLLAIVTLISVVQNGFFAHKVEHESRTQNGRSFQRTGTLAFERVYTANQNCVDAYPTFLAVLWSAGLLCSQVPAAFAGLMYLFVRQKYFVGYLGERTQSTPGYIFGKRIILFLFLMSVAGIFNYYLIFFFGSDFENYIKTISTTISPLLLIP
Experiment: Inhibition of FLAP in human whole blood assessed as inhibition of calcium ionophore A23187-induced LTB4 production preincubated for 5 hrs by ELISA

Compound | IC50 [nM]
COc1ccc(-c2ccc(Cn3c(CC(C)(C)C(=O)O)c(SC(C)(C)C)c4cc(OCc5cccc(C)n5)ccc43)cc2)cn1 | 359
CCOc1ccc(-c2ccc(Cn3c(CC(C)(C)C(=O)O)c(C(=O)CC(C)(C)C)c4cc(OCc5ccc(C)cn5)ccc43)cc2)cn1 | 2000
CCOc1ccc(-c2ccc(Cn3c(CC(C)(C)C(=O)O)c(SC(C)(C)C)c4cc(OCc5ccc(C)c[n+]5[O-])ccc43)cc2)cn1 | 1390
Cc1ccc(COc2ccc3c(c2)c(SC(C)(C)C)c(CC(C)(C)C(=O)O)n3Cc2ccc(-c3ccc(C(F)(F)F)nc3)cc2)nc1 | 180
COc1ccc(-c2ccc(Cn3c(CC(C)(C)C(=O)O)c(SC(C)(C)C)c4cc(OCc5ccc(C)c(C)n5)ccc43)cc2)cn1 | 225

Target: T1, Arachidonate 5-lipoxygenase-activating protein
Experiment: Inhibition of FLAP in human whole blood assessed as inhibition of calcium ionophore A23187-induced LTB4 production preincubated for 15 mins by ELISA

Compound | IC50 [nM]
COc1ccc(-c2ccc(Cn3c(CC(C)(C)C(=O)O)c(SC(C)(C)C)c4cc(OCc5cccc(C)n5)ccc43)cc2)cn1 | 535
COc1cccnc1-c1ccc(Cn2c(CC(C)(C)C(=O)O)c(SC(C)(C)C)c3cc(OCc4ccc(C)cn4)ccc32)cc1 | 1460
CCOc1ccc(-c2ccc(Cn3c(CC(C)(C)C(=O)O)c(C(=O)CC(C)(C)C)c4cc(OCc5ccc(C)cn5)ccc43)cc2)cn1 | 1580
CCOc1ccc(-c2ccc(Cn3c(CC(C)(C)C(=O)O)c(SC(C)(C)C)c4cc(OCc5ccc(C)c[n+]5[O-])ccc43)cc2)cn1 | 873
CCOc1ccc(-c2ccc(Cn3c(CC(C)(C)C(=O)O)c(C(=O)Cc4ccccc4)c4cc(OCc5ccc(C)cn5)ccc43)cc2)cn1 | 32600
COc1ccc(-c2ccc(Cn3c(CC(C)(C)C(=O)O)c(SC(C)(C)C)c4cc(OCc5ccc(Cl)cn5)ccc43)cc2)cn1 | 1160
Cc1ccc(COc2ccc3c(c2)c(SC(C)(C)C)c(CC(C)(C)C(=O)O)n3Cc2ccc(-c3ccc(C(F)(F)F)nc3)cc2)nc1 | 401
COc1ccc(-c2ccc(Cn3c(CC(C)(C)C(=O)O)c(SC(C)(C)C)c4cc(OCc5ccc(C)c(C)n5)ccc43)cc2)cn1 | 570
COc1ccc(-c2ccc(Cn3c(CC(C)(C)C(=O)O)c(SC(C)(C)C)c4cc(OCc5cc(C)on5)ccc43)cc2)cn1 | 2420
COc1ccc(-c2ccc(Cn3c(CC(C)(C)C(=O)O)c(SC(C)(C)C)c4cc(OCc5cc(C)ccn5)ccc43)cc2)cn1 | 3300
COc1ccc(-c2ccc(Cn3c(CC(C)(C)C(=O)O)c(SC(C)(C)C)c4cc(OCc5ncccc5C)ccc43)cc2)cn1 | 1290
COc1ccc(-c2ccc(Cn3c(CC(C)(C)C(=O)O)c(SC(C)(C)C)c4cc(OCc5ncc(C)cc5C)ccc43)cc2)cn1 | 1790
COc1ccc(-c2ccc(Cn3c(CC(C)(C)C(=O)O)c(SC(C)(C)C)c4cc(OCc5ccc6cc(C)ccc6n5)ccc43)cc2)cn1 | 3880
COc1ccc(-c2ccc(Cn3c(CC(C)(C)C(=O)O)c(SC(C)(C)C)c4cc(OCc5ccc6ccc(F)cc6n5)ccc43)cc2)cn1 | 3220
COc1ccc(-c2ccc(Cn3c(CC(C)(C)C(=O)O)c(SC(C)(C)C)c4cc(OCc5cc(C)n(C)n5)ccc43)cc2)cn1 | 26300
CCOc1ccc(-c2ccc(Cn3c(CC(C)(C)C(=O)O)cc4cc(OCc5ccc(C)cn5)ccc43)cc2)cn1 | 22300
COc1ccc(-c2ccc(Cn3c(CC(C)(C)C(=O)O)c(SC(C)(C)C)c4cc(OCc5ccc(C(N)=O)cn5)ccc43)cc2)cn1 | 39000
COc1ccc(-c2ccc(Cn3c(CC(C)(C)C(=O)O)c(SC(C)(C)C)c4cc(OCc5cc(C)nn5C)ccc43)cc2)cn1 | 16600
CCOc1ccc(-c2ccc(Cn3c(CC(C)(C)C(=O)O)c([S+]([O-])C(C)(C)C)c4cc(OCc5ccc(C)cn5)ccc43)cc2)cn1 (racemic) | 33200
COc1ccc(-c2ccc(Cn3c(CC(C)(C)C(=O)O)c(SC(C)(C)C)c4cc(OCc5cc6ccccc6[nH]5)ccc43)cc2)cn1 | 11800

Target: T1, Arachidonate 5-lipoxygenase-activating protein
Experiment: Displacement of [3H]-3-[5-(pyrid-2-ylmethoxy)-3-tert-butylthio-1-benzylindol-2-yl]-2,2-dimethylpropionic acid from FLAP in human polymorphonuclear cell membranes after 1 hr by scintillation counting

Compound | IC50 [nM]
COc1ccc(-c2ccc(Cn3c(CC(C)(C)C(=O)O)c(SC(C)(C)C)c4cc(OCc5cccc(C)n5)ccc43)cc2)cn1 | 3.1
COc1cccnc1-c1ccc(Cn2c(CC(C)(C)C(=O)O)c(SC(C)(C)C)c3cc(OCc4ccc(C)cn4)ccc32)cc1 | 4.6
CCOc1ccc(-c2ccc(Cn3c(CC(C)(C)C(=O)O)c(C(=O)CC(C)(C)C)c4cc(OCc5ccc(C)cn5)ccc43)cc2)cn1 | 29.3
CCOc1ccc(-c2ccc(Cn3c(CC(C)(C)C(=O)O)c(SC(C)(C)C)c4cc(OCc5ccc(C)c[n+]5[O-])ccc43)cc2)cn1 | 89.5
CCOc1ccc(-c2ccc(Cn3c(CC(C)(C)C(=O)O)c(C(=O)Cc4ccccc4)c4cc(OCc5ccc(C)cn5)ccc43)cc2)cn1 | 22500
COc1ccc(-c2ccc(Cn3c(CC(C)(C)C(=O)O)c(SC(C)(C)C)c4cc(OCc5ccc(Cl)cn5)ccc43)cc2)cn1 | 26.5
Cc1ccc(COc2ccc3c(c2)c(SC(C)(C)C)c(CC(C)(C)C(=O)O)n3Cc2ccc(-c3ccc(C(F)(F)F)nc3)cc2)nc1 | 3.2
COc1ccc(-c2ccc(Cn3c(CC(C)(C)C(=O)O)c(SC(C)(C)C)c4cc(OCc5ccc(C)c(C)n5)ccc43)cc2)cn1 | 3.4
COc1ccc(-c2ccc(Cn3c(CC(C)(C)C(=O)O)c(SC(C)(C)C)c4cc(OCc5cc(C)on5)ccc43)cc2)cn1 | 114
COc1ccc(-c2ccc(Cn3c(CC(C)(C)C(=O)O)c(SC(C)(C)C)c4cc(OCc5cc(C)ccn5)ccc43)cc2)cn1 | 21.8
COc1ccc(-c2ccc(Cn3c(CC(C)(C)C(=O)O)c(SC(C)(C)C)c4cc(OCc5ncccc5C)ccc43)cc2)cn1 | 17.4
COc1ccc(-c2ccc(Cn3c(CC(C)(C)C(=O)O)c(SC(C)(C)C)c4cc(OCc5ncc(C)cc5C)ccc43)cc2)cn1 | 59.3
COc1ccc(-c2ccc(Cn3c(CC(C)(C)C(=O)O)c(SC(C)(C)C)c4cc(OCc5ccc6cc(C)ccc6n5)ccc43)cc2)cn1 | 148
COc1ccc(-c2ccc(Cn3c(CC(C)(C)C(=O)O)c(SC(C)(C)C)c4cc(OCc5ccc6ccc(F)cc6n5)ccc43)cc2)cn1 | 327
COc1ccc(-c2ccc(Cn3c(CC(C)(C)C(=O)O)c(SC(C)(C)C)c4cc(OCc5cc(C)n(C)n5)ccc43)cc2)cn1 | 1600
CCOc1ccc(-c2ccc(Cn3c(CC(C)(C)C(=O)O)cc4cc(OCc5ccc(C)cn5)ccc43)cc2)cn1 | 219
COc1ccc(-c2ccc(Cn3c(CC(C)(C)C(=O)O)c(SC(C)(C)C)c4cc(OCc5ccc(C(N)=O)cn5)ccc43)cc2)cn1 | 3270
COc1ccc(-c2ccc(Cn3c(CC(C)(C)C(=O)O)c(SC(C)(C)C)c4cc(OCc5cc(C)nn5C)ccc43)cc2)cn1 | 2470
CCOc1ccc(-c2ccc(Cn3c(CC(C)(C)C(=O)O)c([S+]([O-])C(C)(C)C)c4cc(OCc5ccc(C)cn5)ccc43)cc2)cn1 (racemic) | 559
COc1ccc(-c2ccc(Cn3c(CC(C)(C)C(=O)O)c(SC(C)(C)C)c4cc(OCc5cc6ccccc6[nH]5)ccc43)cc2)cn1 | 1250

Target: T1, Arachidonate 5-lipoxygenase-activating protein
Experiment: Inhibition of FLAP in human peripheral leukocytes assessed as inhibition of calcium ionophore A23187-induced LTB4 production after 10 mins by ELISA
Assay type: cell-based

Compound | IC50 [nM]
COc1ccc(-c2ccc(Cn3c(CC(C)(C)C(=O)O)c(SC(C)(C)C)c4cc(OCc5cccc(C)n5)ccc43)cc2)cn1 | 0.5
COc1cccnc1-c1ccc(Cn2c(CC(C)(C)C(=O)O)c(SC(C)(C)C)c3cc(OCc4ccc(C)cn4)ccc32)cc1 | 0.8
CCOc1ccc(-c2ccc(Cn3c(CC(C)(C)C(=O)O)c(C(=O)CC(C)(C)C)c4cc(OCc5ccc(C)cn5)ccc43)cc2)cn1 | 1.5
CCOc1ccc(-c2ccc(Cn3c(CC(C)(C)C(=O)O)c(SC(C)(C)C)c4cc(OCc5ccc(C)c[n+]5[O-])ccc43)cc2)cn1 | 4.6
CCOc1ccc(-c2ccc(Cn3c(CC(C)(C)C(=O)O)c(C(=O)Cc4ccccc4)c4cc(OCc5ccc(C)cn5)ccc43)cc2)cn1 | 64
COc1ccc(-c2ccc(Cn3c(CC(C)(C)C(=O)O)c(SC(C)(C)C)c4cc(OCc5ccc(Cl)cn5)ccc43)cc2)cn1 | 0.7
Cc1ccc(COc2ccc3c(c2)c(SC(C)(C)C)c(CC(C)(C)C(=O)O)n3Cc2ccc(-c3ccc(C(F)(F)F)nc3)cc2)nc1 | 0.4
COc1ccc(-c2ccc(Cn3c(CC(C)(C)C(=O)O)c(SC(C)(C)C)c4cc(OCc5ccc(C)c(C)n5)ccc43)cc2)cn1 | 0.6
COc1ccc(-c2ccc(Cn3c(CC(C)(C)C(=O)O)c(SC(C)(C)C)c4cc(OCc5cc(C)on5)ccc43)cc2)cn1 | 2.4
COc1ccc(-c2ccc(Cn3c(CC(C)(C)C(=O)O)c(SC(C)(C)C)c4cc(OCc5cc(C)ccn5)ccc43)cc2)cn1 | 1.8
COc1ccc(-c2ccc(Cn3c(CC(C)(C)C(=O)O)c(SC(C)(C)C)c4cc(OCc5ncccc5C)ccc43)cc2)cn1 | 1.1
COc1ccc(-c2ccc(Cn3c(CC(C)(C)C(=O)O)c(SC(C)(C)C)c4cc(OCc5ncc(C)cc5C)ccc43)cc2)cn1 | 1.2
COc1ccc(-c2ccc(Cn3c(CC(C)(C)C(=O)O)c(SC(C)(C)C)c4cc(OCc5ccc6cc(C)ccc6n5)ccc43)cc2)cn1 | 1.7
COc1ccc(-c2ccc(Cn3c(CC(C)(C)C(=O)O)c(SC(C)(C)C)c4cc(OCc5ccc6ccc(F)cc6n5)ccc43)cc2)cn1 | 2.1
COc1ccc(-c2ccc(Cn3c(CC(C)(C)C(=O)O)c(SC(C)(C)C)c4cc(OCc5cc(C)n(C)n5)ccc43)cc2)cn1 | 26.8
CCOc1ccc(-c2ccc(Cn3c(CC(C)(C)C(=O)O)cc4cc(OCc5ccc(C)cn5)ccc43)cc2)cn1 | 22.6
COc1ccc(-c2ccc(Cn3c(CC(C)(C)C(=O)O)c(SC(C)(C)C)c4cc(OCc5ccc(C(N)=O)cn5)ccc43)cc2)cn1 | 229
COc1ccc(-c2ccc(Cn3c(CC(C)(C)C(=O)O)c(SC(C)(C)C)c4cc(OCc5cc(C)nn5C)ccc43)cc2)cn1 | 19.7
CCOc1ccc(-c2ccc(Cn3c(CC(C)(C)C(=O)O)c([S+]([O-])C(C)(C)C)c4cc(OCc5ccc(C)cn5)ccc43)cc2)cn1 (racemic) | 253
COc1ccc(-c2ccc(Cn3c(CC(C)(C)C(=O)O)c(SC(C)(C)C)c4cc(OCc5cc6ccccc6[nH]5)ccc43)cc2)cn1 | 11.1
